Reference: patent EP3041353B1, “COMPOSITIONS COMPRISING BACTERIOSTATIC AGENTS AND BRILLIANT BLUE G” (priority 2013, dated 2015)

How the values were obtained:
[1] = test system: Clavibacter michiganensis; experiment: Bacteriostatic effect of Octenidin with BBG: turbidity after 24 h incubation; assay type: cell-based; parameters: key: +: Bakterienwachstum nach 24 h Inkubation; -: kein Bakterienwachstum nach 24 h Inkubation; details: no BBG
Experimental: (§1) Zur Untersuchung des Einflusses von BBG auf die bakteriostatische Wirkung wurden Bakterien 24 h mit erfindungsgemäßen Zusammensetzungen, Benzalkoniumchlorid (BAK) und Octenidin (Oct) als Bakteriostatikum enthielten, inkubiert. Wenn sich die Inkubationsmischung trübte, wurde das als Bakterienwachstum interpretiert. Zum Vergleich wurde Brillantblau R (BBR) anstelle von BBG eingesetzt. Die Ergebnisse sind in den Tabellen 1-4 wiedergegeben. Tabelle 1: Einfluss von BBG und BBR auf die bakteriostatische Wirkung von BAK gegenüber Escherichia coli (E. coli), + = Bakterienwachstum nach 24 h Inkubation, - = kein Bakterienwachstum nach 24 h Inkubation, R = Brillantblau R (BBR), G = Brillantblau G (BBG).
(§2) Tabelle 4: Einfluss von BBG auf die bakteriostatische Wirkung von Octenidin (Oct) gegenüber Gram-positiven Bakterien., + = Bakterienwachstum nach 24 h Inkubation, - = kein Bakterienwachstum nach 24 h Inkubation, +/- = geringes Wachstum nach 24 h Inkubation, BBG = Brillantblau G.

[2] = test system: Bacillus megaterium; experiment: as above; assay type: cell-based; parameters: key: +: Bakterienwachstum nach 24 h Inkubation; -: kein Bakterienwachstum nach 24 h Inkubation; details: no BBG
Experimental: as §1, §2

[3] = test system: Paenibacillus sp.; experiment: as above; assay type: cell-based; parameters: key: +: Bakterienwachstum nach 24 h Inkubation; -: kein Bakterienwachstum nach 24 h Inkubation; details: no BBG
Experimental: as §1, §2

[4] = test system: Bacillus subtilis; experiment: as above; assay type: cell-based; parameters: key: +: Bakterienwachstum nach 24 h Inkubation; -: kein Bakterienwachstum nach 24 h Inkubation; details: no BBG
Experimental: as §1, §2

[5] = test system: HCE-Zellen; assay type: cell-based, human
Experimental: Die Erfindung wird im Folgenden rein zu Veranschaulichungszwecken anhand der angehängten Figuren und von Ausführungsbeispielen näher erläutert. • Figur 1 Effekt von 0,025% BBG auf die Toxizität von unterschiedlichen Konzentrationen (in Gew.-%) von Benzalkoniumchlorid (BAK) auf HCE-Zellen (HCE = human corneal epithelium, Menschliche Hornhautepithelzellen) bei verschiedenen Einwirkdauern (5, 30, 60 min). Oben: BAK ohne BBG. Unten: BAK mit BBG. Inkubationsmedium: Phosphat-gepufferte Kochsalzlösung (PBS). • Figur 2 Effekt von BBG (in Gew.-%) in unterschiedlichen Konzentrationen auf die Toxizität von BAK bei 0,003% (oben) und 0,008% (unten). PBS = Phosphat-gepufferte Kochsalzlösung; BBS = balanced salt solution (ausgeglichene Salzlösung). • Figur 3 Effekt von BBG (0,025 Gew.-%) auf die Toxizität von Octenidindihydrochlorid (Oct) in unterschiedlichen Konzentrationen (in Gew.-%) nach 5 min Inkubation (oben) und 30 min Inkubation (unten). Octenidin alone = Octenidin allein (ohne BBG). • Figur 4 Effekt von BBG (0,025 %) auf die Toxizität von Cetylpyridiniumchlorid (CPC) in unterschiedlichen Konzentrationen (in Gew.-%) nach 5 min Inkubation (oben) und 30 min Inkubation (unten). CPC alone = Cetylpyridiniumchlorid allein (ohne BBG). • Figur 5 Effekt von BBG (0,025 %) auf die Toxizität von Chlorhexidin (CHex) in Form von Chlorhexidindigluconat in unterschiedlichen Konzentrationen (in Gew.-%) nach 5 min Inkubation (oben) und 30 min Inkubation (unten). Chlorhexidin alone = Chlorhexidin allein (ohne BBG)
Figur 1 zeigt die Wirkung von BBG 0,025% Gew.-% auf die Toxizität von unterschiedlichen Konzentrationen (in Gew.-%) von Benzalkoniumchlorid (BAK) auf HCE-Zellen (HCE = human corneal epithelium, Menschliche Hornhautepithelzellen) bei verschiedenen Einwirkdauern (5, 30, 60 min).
Figur 2 zeigt die Wirkung von BBG (in Gew.-%) in unterschiedlichen Konzentrationen und zwei unterschiedlichen Medien (PBS und BSS) auf die Toxizität von BAK bei 0,003% (oben) und 0,008% (unten) bei HCE-Zellen. Die Schutzwirkung von BBG bei niedrigeren BAK-Konzentrationen setzt schon bei 0,003% BBG ein. Bei höheren BAK-Konzentrationen sind 0,015% notwendig.
Figur 3 zeigt die Wirkung von BBG (0,025 Gew.-%) auf die Toxizität von Octenidin (Oct) Form von Octenidindihydrochlorid in unterschiedlichen Konzentrationen (in Gew.-%) nach 5 min Inkubation (oben) und 30 min Inkubation (unten). Octenidin alone = Octenidin allein (ohne BBG). […] BBG (0,025 Gew.-%) kann diesen Effekt bei 5 min Inkubation (links) bis zu einer Oct-Konzentration von 0,01% (der höchsten getesteten Konzentration) verhindern. Bei 30 min Einwirkzeit (rechts) ist erst ab 0,009 Gew.-% Oct der Schutz nicht mehr maximal.
Die Figuren 4 und 5 zeigen die Wirkung von BBG (0,025 Gew.-%) auf die Toxizität von Cetylpyridiniumchlorid (CPC, Fig. 4) und Chlorhexidin (CHex in Form von Chlorhexidindigluconat, Fig. 5) in unterschiedlichen Konzentrationen (in Gew.-%) nach 5 min Inkubation (jeweils oben) und 30 min Inkubation (jeweils unten).

[6] = test system: Vibrio sp. Gal12; experiment: Bacteriostatic effect of Octenidin with BBG: turbidity after 24 h incubation; assay type: cell-based; parameters: key: +: Bakterienwachstum nach 24 h Inkubation; -: kein Bakterienwachstum nach 24 h Inkubation; details: no BBG
Experimental: as §1
(§3) Gram-negative Bakterien (hier E. coli) sind widerstandsfähiger als Gram-positive Bakterien (hier Bacillus sp.) und wachsen konzentrationsabhängig. […] Tabelle 3: Einfluss von BBG auf die bakteriostatische Wirkung von Octenidin (Oct) gegenüber Gram-negativen Bakterien., + = Bakterienwachstum nach 24 h Inkubation, - = kein Bakterienwachstum nach 24 h Inkubation, BBG = Brillantblau G.

[7] = test system: Escherichia coli DH5α; experiment: as above; assay type: cell-based; parameters: key: +: Bakterienwachstum nach 24 h Inkubation; -: kein Bakterienwachstum nach 24 h Inkubation; details: no BBG
Experimental: as §1, §3

[8] = test system: Pseudomonas putida DSM 291; experiment: as above; assay type: cell-based; parameters: key: +: Bakterienwachstum nach 24 h Inkubation; -: kein Bakterienwachstum nach 24 h Inkubation; details: no BBG
Experimental: as §1, §3

[9] = test system: Escherichia coli (E. coli); experiment: Bacteriostatic effect of BAK with BBG/BBR: turbidity after 24 h incubation; assay type: cell-based; parameters: key to Bakterienwachstum nach 24 h Inkubation: +: Bakterienwachstum nach 24 h Inkubation; -: kein Bakterienwachstum nach 24 h Inkubation
Experimental: as §1

[10] = test system: Bacillus sp.; experiment: as above; assay type: cell-based; parameters: key to Bakterienwachstum nach 24 h Inkubation: +: Bakterienwachstum nach 24 h Inkubation; -: kein Bakterienwachstum nach 24 h Inkubation
Experimental: as §1
Tabelle 2: Einfluss von BBG und BBR auf die bakteriostatische Wirkung von BAK gegenüber Bacillus sp., + = Bakterienwachstum nach 24 h Inkubation, - = kein Bakterienwachstum nach 24 h Inkubation, R = Brillantblau R (BBR), G = Brillantblau G (BBG).

CCCCCCCCN=c1ccn(CCCCCCCCCCn2ccc(=NCCCCCCCC)cc2)cc1 [Octenidin, reference compound]
Bakterienwachstum nach 24 h Inkubation ([1]; Octenidin 0,01% alone): - | Bakterienwachstum nach 24 h Inkubation ([1]; Octenidin 0,002% alone): - | Bakterienwachstum nach 24 h Inkubation ([1]; Octenidin 0,003% alone): - | Bakterienwachstum nach 24 h Inkubation ([1]; Octenidin 0,005% alone): - | Bakterienwachstum nach 24 h Inkubation ([1]; Octenidin 0,007% alone): - | Bakterienwachstum nach 24 h Inkubation ([1]; Octenidin 0,009% alone): - | Bakterienwachstum nach 24 h Inkubation ([2]; Octenidin 0,01% alone): - | Bakterienwachstum nach 24 h Inkubation ([2]; Octenidin 0,002% alone): - | Bakterienwachstum nach 24 h Inkubation ([2]; Octenidin 0,003% alone): - | Bakterienwachstum nach 24 h Inkubation ([2]; Octenidin 0,005% alone): - | Bakterienwachstum nach 24 h Inkubation ([2]; Octenidin 0,007% alone): - | Bakterienwachstum nach 24 h Inkubation ([2]; Octenidin 0,009% alone): - | Bakterienwachstum nach 24 h Inkubation ([3]; Octenidin 0,01% alone): - | Bakterienwachstum nach 24 h Inkubation ([3]; Octenidin 0,002% alone): - | Bakterienwachstum nach 24 h Inkubation ([3]; Octenidin 0,003% alone): - | Bakterienwachstum nach 24 h Inkubation ([3]; Octenidin 0,005% alone): - | Bakterienwachstum nach 24 h Inkubation ([3]; Octenidin 0,007% alone): - | Bakterienwachstum nach 24 h Inkubation ([3]; Octenidin 0,009% alone): - | Bakterienwachstum nach 24 h Inkubation ([4]; Octenidin 0,01% alone): - | Bakterienwachstum nach 24 h Inkubation ([4]; Octenidin 0,002% alone): - | Bakterienwachstum nach 24 h Inkubation ([4]; Octenidin 0,003% alone): - | Bakterienwachstum nach 24 h Inkubation ([4]; Octenidin 0,005% alone): - | Bakterienwachstum nach 24 h Inkubation ([4]; Octenidin 0,007% alone): - | Bakterienwachstum nach 24 h Inkubation ([4]; Octenidin 0,009% alone): - | Toxizität (Zellschädigung) [5]: stark zellschädigend | Bakterienwachstum nach 24 h Inkubation ([6]; Octenidin 0,01% alone): - | Bakterienwachstum nach 24 h Inkubation ([6]; Octenidin 0,002% alone): - | Bakterienwachstum nach 24 h Inkubation ([6]; Octenidin 0,003% alone): - | Bakterienwachstum nach 24 h Inkubation ([6]; Octenidin 0,005% alone): - | Bakterienwachstum nach 24 h Inkubation ([6]; Octenidin 0,007% alone): - | Bakterienwachstum nach 24 h Inkubation ([6]; Octenidin 0,009% alone): - | Bakterienwachstum nach 24 h Inkubation ([7]; Octenidin 0,01% alone): - | Bakterienwachstum nach 24 h Inkubation ([7]; Octenidin 0,002% alone): - | Bakterienwachstum nach 24 h Inkubation ([7]; Octenidin 0,003% alone): - | Bakterienwachstum nach 24 h Inkubation ([7]; Octenidin 0,005% alone): - | Bakterienwachstum nach 24 h Inkubation ([7]; Octenidin 0,007% alone): - | Bakterienwachstum nach 24 h Inkubation ([7]; Octenidin 0,009% alone): - | Bakterienwachstum nach 24 h Inkubation ([8]; Octenidin 0,01% alone): - | Bakterienwachstum nach 24 h Inkubation ([8]; Octenidin 0,002% alone): - | Bakterienwachstum nach 24 h Inkubation ([8]; Octenidin 0,003% alone): - | Bakterienwachstum nach 24 h Inkubation ([8]; Octenidin 0,005% alone): - | Bakterienwachstum nach 24 h Inkubation ([8]; Octenidin 0,007% alone): - | Bakterienwachstum nach 24 h Inkubation ([8]; Octenidin 0,009% alone): -

Benzalkoniumchlorid [BAK]
Bakterienwachstum nach 24 h Inkubation ([9]; BAK 0,01% alone, no dye): - | Bakterienwachstum nach 24 h Inkubation ([9]; BAK 0,001 % alone, no dye): - | Bakterienwachstum nach 24 h Inkubation ([10]; BAK 0.001% alone, no dye): -

Brillantblau R [BBR]
Bakterienwachstum nach 24 h Inkubation ([9]; 0,007% R + BAK 0,01%): - | Bakterienwachstum nach 24 h Inkubation ([9]; 0,007% R + BAK 0,001 %): + | Bakterienwachstum nach 24 h Inkubation ([9]; 0,007% R + BAK 0,0016%): + | Bakterienwachstum nach 24 h Inkubation ([9]; 0,007% R + BAK 0,0025%): - | Bakterienwachstum nach 24 h Inkubation ([9]; 0,007% R + BAK 0,004%): - | Bakterienwachstum nach 24 h Inkubation ([9]; 0,007% R + BAK 0,006%): - | Bakterienwachstum nach 24 h Inkubation ([9]; 0,015% R + BAK 0,01%): - | Bakterienwachstum nach 24 h Inkubation ([9]; 0,015% R + BAK 0,001 %): + | Bakterienwachstum nach 24 h Inkubation ([9]; 0,015% R + BAK 0,0016%): + | Bakterienwachstum nach 24 h Inkubation ([9]; 0,015% R + BAK 0,0025%): + | Bakterienwachstum nach 24 h Inkubation ([9]; 0,015% R + BAK 0,004%): - | Bakterienwachstum nach 24 h Inkubation ([9]; 0,015% R + BAK 0,006%): - | Bakterienwachstum nach 24 h Inkubation ([9]; 0,030% R + BAK 0,01%): - | Bakterienwachstum nach 24 h Inkubation ([9]; 0,030% R + BAK 0,001 %): + | Bakterienwachstum nach 24 h Inkubation ([9]; 0,030% R + BAK 0,0016%): + | Bakterienwachstum nach 24 h Inkubation ([9]; 0,030% R + BAK 0,0025%): + | Bakterienwachstum nach 24 h Inkubation ([9]; 0,030% R + BAK 0,004%): + | Bakterienwachstum nach 24 h Inkubation ([9]; 0,030% R + BAK 0,006%): + | Bakterienwachstum nach 24 h Inkubation ([9]; 0,030% R, Kein BAK): + | Einfluss auf die bakteriostatische Wirkung von BAK ([9]; Gram-negative Bakterien (E. coli), concentration dependent): hebt einen Teil der bakteriostatischen Wirkung auf | Einfluss auf das Bakterienwachstum ([9]; dye alone, no BAK (rechte Spalte, Tabelle 1)): beeinflussen das Bakterienwachstum nicht | Schutzwirkung (zelltoxische Wirkung der Bakteriostatika bei gleichzeitiger Gabe) ([5]; dye given together with the bacteriostatic agent): zeigte sich diese Schutzwirkung nicht | Bakterienwachstum nach 24 h Inkubation ([10]; 0.007% R + BAK 0.001%): - | Bakterienwachstum nach 24 h Inkubation ([10]; 0.007% R + BAK 0.01%): - | Bakterienwachstum nach 24 h Inkubation ([10]; 0.030% R, Kein BAK): + | Einfluss auf das Bakterienwachstum ([10]; dye alone, no BAK (rechte Spalte, Tabelle 2)): beeinflussen das Bakterienwachstum nicht
